From US20060014740A1 (priority 2003, published 2006)
Read-outs that look alike come from different tables or passages of the source.

Legend:
[1] = system: PC-3 human prostate cancer cells; assay: SRB cytotoxicity assay, PC-3; assay type: cell-based; conditions: Example 11 table, 96 h; for IC50: Homo sapiens, read-out: IC50 PC-3
Method: (§1) For in vitro cytotoxicity screening, 1000 to 5000 cells were plated into each well of 96-well plates depending on growth rate, and exposed to different concentrations of a test compound for 96 h in three to five replicates. All the compounds were dissolved in dimethyl sulfoxide at 5 to 20 mM, and diluted to desired concentrations in complete culture medium. Cell numbers at the end of the drug treatment were measured by the SRB assay (Gududuru et al., “Synthesis and Biological Evaluation of Novel Cytotoxic Phospholipids for Prostate Cancer,” Bioorg. Med. Chem. Lett. 14:4919-4923 (2004); Rubinstein et at., “Comparison of in vitro Anticancer-Drug-Screening Data Generated with a Tetrazolium Assay Versus a Protein Assay Against a Diverse Panel of Human Tumor Cell Lines,” J. Naatl, Cancer Inst. 82:1113-1118 (1990), each of which is hereby incorporated by reference in its entirety). Briefly, the cells were fixed with 10% of trichloroacetic acid, stained with 0.4% SRB, and the absorbances at 540 nm was measured using a plate reader (DYNEX Technologies, Chantilly, Va.).
(§2) The antiproliferative activity of all the synthesized compounds was evaluated against five human prostate cancer cell lines and in RH7777 cells (negative control) using the sulforhodamine B (SRB) assay (see description in Example 5 above).
(§3) The chosen cell lines represent different basal levels of active AKT and LPL receptor expression (discussed later). Cells were exposed to a wide range of concentrations (0 to 100 μM) of the indicated compound for 96 h. Cell numbers at the end of treatment were measured using the sulforhodamine B (SRB) assay^5.
(§4) Cells were exposed to a wide range of concentrations (0 to 100 μM) of the particular compound for 96 h in 96 well plates. Cells were fixed with 10% trichloroacetic acid, washed five times with water. The plates were air dried overnight and fixed cells were stained with SRB solution. The cellular protein-bound SRB was measured at 540 nm using a plate reader. Cell numbers at the end of the treatment were measured.
as §4, with “96-well” for “96 well”, “calculated as a percentage of untreated control.” for “measured.”

[2] = system: TSU-Pr1 human prostate cancer cells; assay: SRB cytotoxicity assay, TSU-Pr1; assay type: cell-based; conditions: Example 11 table, 96 h, read-out: IC50 TSU-Pr1
Method: (§5) Dr. Mitchell Steiner at University of Tennessee Health Science Center, kindly provided PPG-1 and TSU-PrI cells.
as §1, §2, §3, §4
as §4, with “96-well” for “96 well”, “calculated as a percentage of untreated control.” for “measured.”

[3] = system: PPC-1 human prostate cancer cells; assay: SRB cytotoxicity assay, PPC-1; assay type: cell-based; conditions: Example 11 table, 96 h, read-out: IC50 PPC-1
Method: as §5, §1, §2, §3, §4
as §4, with “96-well” for “96 well”, “calculated as a percentage of untreated control.” for “measured.”

[4] = system: LNCaP human prostate cancer cells; assay: SRB cytotoxicity assay, LNCaP; assay type: cell-based; conditions: Example 11 table, 96 h; for IC50: Homo sapiens, LNCaP, read-out: IC50 LNCaP
Method: as §1, §2, §3, §4
as §4, with “96-well” for “96 well”, “calculated as a percentage of untreated control.” for “measured.”

[5] = system: RH7777 rat hepatoma cells; assay: SRB cytotoxicity assay, RH7777 control cell line; assay type: cell-based; conditions: Example 11 table, 96 h, read-out: IC50 RH7777
Method: as §1, §2, §3, §4
as §4, with “96-well” for “96 well”, “calculated as a percentage of untreated control.” for “measured.”

[6] = system: human breast cancer cell line (MCF-7); assay: SRB cytotoxicity assay, MCF-7; assay type: cell-based; conditions: Example 11 table, 96 h, read-out: IC50 MCF-7
Method: as §1
In vitro cytotoxicity assay was performed by the same sulforhodamine B (SRB) assay (described above). The compounds shown in Table 8 below where tested for activity against the breast cancer and ovarian cancer cell lines.
as §3, §4

[7] = system: DU-145 human prostate cancer cells; assay: SRB cytotoxicity assay, DU-145; assay type: cell-based; conditions: Example 11 table, 96 h, read-out: IC50 DU145
Method: as §1, §2, §3, §4
as §4, with “96-well” for “96 well”, “calculated as a percentage of untreated control.” for “measured.”

[8] = system: AKT phosphorylation (Pi-AKT) in LNCaP cells; assay: AKT phosphorylation by Western blot in LNCaP cells; assay type: cell-based, human; conditions: Example 14, 10 μM
Method: As another assessment of cytotoxicity, AKT inhibition was measured. […] The immunoblots were visualized by enhanced, chemiluminescence, and changes of relative levels of phospho-AKT compared to total AKT by analog treatment were quantified by densitometric analysis.
Prostate cell line LNCaP cells were treated with 30 μM of the compound of Formula: [drawing 54]
for the indicated period and time. The active form of AKT (Pi-AKT) and the β-Actin were quantified by Western blot analysis. […]
Prostate cell line LNCaP cells were treated with 10 μM of the compound of Formula: [drawing 55]
for the indicated period and time. The active form of AKT (Pi-AKT) and AKT were quantified by Western blot analysis. […]
Prostate cell line LNCaP cells were treated with 10 μM of the compound of Formula [drawing 56]
for the indicated period and time. The active form of AKT (Pi-AKT), AKT and β-Actin were quantified by Western blot analysis. […]

Row | Structure (SMILES) | IC50 [1] | IC50 ([2]; Homo sapiens, TSU-Pr1) | IC50 ([3]; Homo sapiens, PPC-1) | IC50 [4] | IC50 ([5]; Rattus norvegicus, RH7777) | IC50 ([6]; Homo sapiens, MCF7) | IC50 ([7]; Homo sapiens, DU-145) | also measured
1 | N#Cc1ccc(C2N[C@H](C(=O)O)CS2)cc1 (stereo partly drawn) | > 100 µM | > 100 µM | > 100 µM | > 100 µM | > 100 µM | > 100 µM | > 100 µM | 
2 | CCCCCCCCCCCCC1OC[C@@H](COP(=O)(O)O)O1.N.N (stereo partly drawn) |  |  |  |  |  |  |  | IC50 PC-3 [1]: No toxicity; IC50 [2]: > 100 µM; IC50 [3]: > 100 µM; IC50 LNCaP [4]: No toxicity; IC50 [5]: > 100 µM; IC50 [6]: > 100 µM; IC50 [7]: > 100 µM
3 | O=C(O)[C@@H]1CSC(c2cccnc2)N1 (stereo partly drawn) | > 100 µM | ~100 µM | > 100 µM | > 100 µM | > 100 µM | > 100 µM | > 100 µM | 
4 | O=C(O)[C@@H]1CSC(c2c(Cl)cccc2Cl)N1 (stereo partly drawn) | > 100 µM | > 100 µM | > 100 µM | > 100 µM | > 100 µM | > 100 µM | > 100 µM | 
5 | CC(C)(C)OC(=O)N[C@H](CO)C(=O)NCCCCCCCCCCCCNC(=O)[C@@H](CO)NC(=O)OC(C)(C)C | > 20 µM | 3.7 µM | > 20 µM | 12.5 µM | 8.5 µM | 10.6 µM | > 20 µM | 
6 | CCCCCCCCCCCCC1N[C@H](C(=O)O)CS1 (stereo partly drawn) | ~20 µM | ~20 µM | 12.6 µM | 16.1 µM | > 20 µM | 16.3 µM | ~20 µM | 
7 | CCCCCCCCCCCCCCCCCCNC[C@H](CO)NC.Cl |  |  |  |  |  |  |  | Time to almost complete inhibition of AKT phosphorylation [8]: ≤ 1 h; Relative abundance (Pi-AKT/AKT) ([8]; 1 h, (−) control 1.00): 0.07; Relative abundance (Pi-AKT/β-Actin) ([8]; 1 h, (−) control 1.00): 0.08; Relative abundance (Pi-AKT/AKT) ([8]; 2 h): 0.06; Relative abundance (Pi-AKT/β-Actin) ([8]; 2 h): 0.06; Relative abundance (Pi-AKT/AKT) ([8]; 3 h): 0.04; Relative abundance (Pi-AKT/β-Actin) ([8]; 3 h): 0.04; Relative abundance (Pi-AKT/AKT) ([8]; 4 h): 0.12; Relative abundance (Pi-AKT/β-Actin) ([8]; 4 h): 0.11; Relative abundance (Pi-AKT/AKT) ([8]; 6 h): 0.12; Relative abundance (Pi-AKT/β-Actin) ([8]; 6 h): 0.10; Relative abundance (Pi-AKT/AKT) ([8]; 8 h): 0.14; Relative abundance (Pi-AKT/β-Actin) ([8]; 8 h): 0.11; Relative abundance (Pi-AKT/AKT) ([8]; 10 h): 0.14; Relative abundance (Pi-AKT/β-Actin) ([8]; 10 h): 0.43
